Legend:
[1] = molecular target: C. albicans cytoplasmic tryptophanyl-tRNA synthetase (recombinant, thrombin-cleaved GST fusion from pC3 822) (Candida albicans, UniProt Q5A3P4); experiment: Aminoacylation (charging) assay, Km determination with purified recombinant TrpRS; assay type: biochemical; conditions: read-out: Km for tryptophan; recombinant enzyme; crude yeast tRNA; 1 to 40 μM [3H]tryptophan; 25° C.
Procedure: (§1) The purified recombinant protein obtained after thrombin cleavage of the GST-fusion protein produced by JM109/pC^3 822 was used for further kinetic studies. Charging assays were based on the procedure of Shepard et al. (Proc. Natl. Acad. Sci. USA 89:9964-68 (1992)). Unless otherwise stated, a typical 50 μl reaction, carried out at 25° C., contained 1 mM ATP, 1 μM of [^3 H]Tryptophan (22.2 Ci/mmol), 90 μM crude tRNA from brewer's yeast (Boehringer Mannheim), 10 mM KF, 30 mM HEPES, 30 mM KCl pH 7.5, 5 mM MgCl2, and 10 mM DTT. Purified enzyme was diluted in 100 mM HEPES, pH 7.5, 20 mM DTT and 0.1 mg/ml BSA.
(§2) Reactions were started by the addition of enzyme to the reaction mixture preincubated at 25° C., with […] protein in the assay. At various time intervals, 10 μl of the reaction mix was quenched in a 96-well filter plate (Millipore, cat# MAFBNOB50) prefilled with 100 μl of cold 5% TCA. The liquid in the filter plate was drained by applying vacuum suction on the manifold. The plate was subsequently washed 2 times with 200 μl 5% TCA, 2 times with 100 μl double distilled H2 O with continuous vacuum suction, and once with 100 μl 95% EtOH. The plate was heat-dried under vacuum, 100 μl Microscint was added to each well, and the aminoacylated tRNA was quantitated by scintillation counting in a Topcount (Packard) scintillation counter. […]

[2] = tested on: Nc1ncnc2c1ncn2[C@@H]1O[C@H](COP(=O)(O)OP(=O)(O)OP(=O)(O)O)[C@@H](O)[C@H]1O; experiment: as above; assay type: biochemical, Candida albicans; conditions: other: recombinant enzyme, ATP concentration range 0.19 to 6 mM, 25° C., pH 7.5
Procedure: as §1, §2

Sequence of C. albicans cytoplasmic tryptophanyl-tRNA synthetase (recombinant, thrombin-cleaved GST fusion from pC3 822) (Q5A3P4 whole entry S271A, the tested form may be a part): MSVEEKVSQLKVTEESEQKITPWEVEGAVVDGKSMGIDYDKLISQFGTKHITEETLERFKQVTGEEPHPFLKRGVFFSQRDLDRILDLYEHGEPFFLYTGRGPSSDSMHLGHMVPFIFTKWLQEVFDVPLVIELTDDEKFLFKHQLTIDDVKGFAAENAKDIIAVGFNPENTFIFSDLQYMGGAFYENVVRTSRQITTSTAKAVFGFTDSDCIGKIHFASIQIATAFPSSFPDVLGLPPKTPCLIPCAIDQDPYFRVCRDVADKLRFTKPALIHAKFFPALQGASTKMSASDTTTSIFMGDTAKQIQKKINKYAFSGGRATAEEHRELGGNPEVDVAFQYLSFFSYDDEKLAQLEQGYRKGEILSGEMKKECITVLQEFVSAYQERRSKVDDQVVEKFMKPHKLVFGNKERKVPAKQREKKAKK

Compound	Km [1] [µM]	Km [2] [µM]
N[C@@H](Cc1c[nH]c2ccccc12)C(=O)O [tryptophan]	3 to 4	
C. albicans cytoplasmic tryptophanyl-tRNA synthetase (recombinant, thrombin-cleaved GST fusion from pC3 822) (Candida albicans SC5314)		1100
